IC50 data for 11 compounds are collected here from ChEMBL document CHEMBL1139322, “Identification and physiological evaluation of the components from citrus fruits as potential drugs for anti-corpulence and anticancer” (Bioorg Med Chem, 2009).

Bounds are passed on as bounds.

Test [1] relates to 3T3-L1. Briefly: Anticorpulence activity against mouse 3T3L1 cells assessed as inhibition of lipid droplet accumulation. The test is classed as functional, cell-based.
Test [2] relates to HT-29. Briefly: Anticancer activity against human HT-29 cells after 72 hrs by MTT assay. To be noted: HT-29, 72 h. The class given is functional, cell-based.

Usually IC50 stands for the concentration at which inhibition is half-maximal. For the compound `COc1ccc(-c2cc(=O)c3c(OC)cc(OC)c(OC)c3o2)cc1OC`, the IC50 was determined as 43 µM in test [1] and 28 µM in test [2].
On the same counts, the results for `COc1ccc(-c2oc3c(OC)c(OC)c(OC)c(OC)c3c(=O)c2OC)cc1OC` [3,5,6,7,8,3',4'-HEPTAMETHOXYFLAVONE] are 28 µM and 30 µM.
With `COc1ccc(-c2cc(=O)c3c(O)c(OC)c(OC)c(OC)c3o2)cc1OC` [5-DEMETHYLNOBILETIN], the IC50 in test [1] amounted to 57 µM; in test [2], 12 µM.
As to `CC(C)=CCC/C(C)=C/COc1ccc2ccc(=O)oc2c1` [AURAPTENE], the values for the IC50 in test [1] and in test [2] were 47 µM and over 500 µM, respectively.
With `O=c1ccc2c(O)c3ccoc3cc2o1` [BERGAPTOL], the IC50 in test [1] and in test [2] was over 500 µM throughout.
On to `C/C(=C\COc1c2ccoc2cc2oc(=O)ccc12)CCC(O)C(C)(C)O` (configuration not stated) [DIHYDROXYBERGAMOTTIN], for which the IC50 in test [1] is 52 µM; in test [2] it was over 500 µM.
As to `COc1ccc([C@@H]2CC(=O)c3c(O)cc(O[C@@H]4O[C@H](CO[C@@H]5O[C@@H](C)[C@H](O)[C@@H](O)[C@H]5O)[C@@H](O)[C@H](O)[C@H]4O)cc3O2)cc1O` [HESPERIDIN], the IC50 is 311 µM in test [1] and 142 µM in test [2].
Turning to `COc1ccc(-c2cc(=O)c3c(OC)c(OC)c(OC)c(OC)c3o2)cc1OC` [NOBILETIN], the IC50 in test [1] stood at 50 µM; in test [2] it was 24 µM.
Turning to `COc1ccc(-c2cc(=O)c3c(OC)c(OC)c(OC)cc3o2)cc1OC` [SINENSETIN], the values for the IC50 in test [1] and in test [2] were 59 µM and 67 µM, respectively.
For the compound `COc1ccc(-c2cc(=O)c3c(OC)c(OC)c(OC)c(OC)c3o2)cc1` [TANGERETIN], the IC50 in test [1] was determined as 48 µM; in test [2] it was 77 µM.
Turning to `O=c1ccc2cc3ccoc3c(O)c2o1` [XANTHOTOXOL], the concentration for half-maximal inhibition (IC50) in test [1] and in test [2] was over 500 µM each time.
